Columns and labels:
[1] = test system: Salmonella typhimurium; assay: serial dilution test, MIC, Salmonella typhimurium; assay type: cell-based; conditions: Salmonella enterica, 37°, Gram-negative
From the text: (§1) The components display the following Rf values in a thin layer chromatogram on silica gel plates from Messrs. Merck (silica gel 60, F254): in chloroform/methanol (9:1): X=0.58; I=0.81; in benzene/methanol (9:1): X=0.26; I=0.30; in chloroform/acetone (5:5): X=0.40; I=0.53; and in benzene/acetone (5:5): X=0.47; I=0.74. In a serial dilution test the following minimum inhibitory concentrations (MIC) were found for Lysolipin I: […]

[2] = test system: Candida albicans; assay: activity against yeast-like fungi, Candida albicans; assay type: cell-based
[3] = test system: Candida lipolytica; assay: activity against yeast-like fungi, Candida lipolytica; assay type: cell-based
[4] = test system: Saccaromyces cerevisiae; assay: activity against yeast-like fungi, Saccaromyces cerevisiae; assay type: cell-based
[5] = test system: microbial cells; assay: activity against growing and dormant microbial cells and sphaeroplasts; assay type: cell-based; conditions: both growing and dormant cells
[6] = solubility; assay type: physicochemical
[7] = titration / microtitration (pK); assay type: physicochemical
From the text: (OCH3 : determination according to the method of Zeisel). Molecular weight, determined by vapour pressure osmometry in ethyl acetate; found 536. Microtitration with 0.1 N tetramethylammonium hydroxide in methylcellosolve/water (8:2): found pK^xMCS 9.72, equivalent weight 545. Titration with 0.1 N HCl; no step (N atom therefore not basic).

[8] = test system: Micro-organisms; assay: MIC of Lysolipin X compared with Lysolipin I, serial dilution test; assay type: cell-based; conditions: Lysolipin X relative to Lysolipin I
From the text: as §1

[9] = stability / conversion of Lysolipin X into Lysolipin I; assay type: physicochemical
Procedure: Lysolipin X was obtained as a colourless amorphous powder. […] The almost colourless amorphous powder thus obtained, that is to say Lysolipin X, can be crystallized from methanol; on heating the crystals undergo modification at 200° and melt at 260° C.
The pure product so obtained is stable in the absence of light and acid. In a thin layer chromatogram on silica gel in the system chloroform/methanol (39:1), Rf=0.22 (Rf of Lysolipin I=0.39). […] The signals at 0.9 and 1.3 ppm are probably to be ascribed to a fatty impurity. However, most of the signals in the range from 3 to 8 ppm are very similar to those of Lysolipin I and point to the close relationship between the two compounds.
On analogous working up, fractions 76-100 give an almost colourless amorphous powder (393 mg), which is Lysolipin X and cannot be purified by crystallisation. See FIGS. 7 and 8 for the NMR spectrum and the UV spectrum. On thin layer chromatography on silica gel in chloroform/methanol (39:1), Rf=0.22 (compared with 0.39 for Lysolipin I). On the thin layer plate, the spot for Lysolipin X, which is initially very pale and scarcely discernible, becomes deep yellow on standing in the air and, more rapidly, on warming.

Row | Compound | MIC [1] | activity against yeast-like fungi [2] | activity against yeast-like fungi [3] | activity against yeast-like fungi [4] | activity against growing and dormant microbial cells and their sphaeroplasts [5] | solubility in organic solvents ([6]; acetone, dimethylformamide, dimethylsulphoxide, ethyl acetate, hydrocarbons, halogenated hydrocarbons) | solubility in lower alkanols, ether and petroleum ether ([6]; methanol, ethanol, n-propanol, ether, petroleum ether) | solubility in water and aqueous acids and bases ([6]; water and aqueous acids and bases) | titration with HCl ([7]; 0.1 N HCl, N atom therefore not basic) | pKa ([7]; microtitration with 0.1 N tetramethylammonium hydroxide in methylcellosolve/water (8:2), read-out: pK^xMCS) | factor by which the MIC is higher [8] | stability to acid in solvent ([9]; chloroform or methanol with formic, acetic, hydrochloric or sulfuric acid) | stability on heating or irradiation with UV light ([9]; especially in the presence of catalytic amounts of acids) | stability of impure material ([9]; impure) | stability on storage ([9]; impure, stored in the air, unprotected from light, room temperature or higher) | stability of pure product ([9]; in the absence of light and acid) | stability on thin layer plate ([9]; silica gel plate, standing in the air, more rapidly on warming)
1 | COc1c(Cl)ccc2c(=O)c3c(O)c4c5c(c3oc12)OCOC5C(OC)c1cc2c(c(O)c1-4)C(=O)N(C)C(OC)C2O (stereo not drawn) [Lysolipin I] | > 100 µg/mL | display an activity | display an activity | display an activity | active | readily soluble | partially soluble | virtually insoluble | no step | 9.72 | – | – | – | – | – | – | –
2 | COc1c(Cl)ccc2c(=O)c3c(oc12)C1=C2C(OCO1)C(OC)c1cc4c(c(O)c1C2(O)C3O)C(=O)N(C)C(OC)C4O (stereo not drawn) [Lysolipin X] | – | display an activity | display an activity | display an activity | active | – | – | – | – | – | 10-50 | converted into Lysolipin I | forms Lysolipin I | unstable | gradually converted into Lysolipin I | stable | converted into Lysolipin I

— patent US4277478A, “Antibiotic and use thereof” (priority 1975, dated 1981)
